# Reference: the supplement of paper PMC10307832
# Legend:
# Assay in all cases: relative viability (nuclei count vs DMSO), 5 days (fraction); higher = more cells survive
# XMD13-2 + Trametinib = compound: C1CC1C(=O)NC2=NNC3=C2C=CC(=C3)C4=CC(=CC=C4)C(=O)NC5CC5 [XMD13-2] + CC(=O)Nc1cccc(-n2c(=O)n(C3CC3)c(=O)c3c(Nc4ccc(I)cc4F)n(C)c(=O)c(C)c32)c1 [Trametinib] (partner 0.02 µM)
# In short: (§1)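 Relative viability was taken as the ratio of nuclei in treated wells to nuclei in vehicle wells. Lung cancer cell lines in 1536-well plates received compounds by pin tool one day after seeding, either one drug alone or a fixed anchor-drug dose plus five library-drug doses (not always all listed) in √10 steps. Nuclei were counted on 4× images after 5 days of treatment, and values are medians of duplicate plates.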
# ALW-II-49-7 + Bortezomib = compound: Cc1ccc(C(=O)Nc2cccc(C(F)(F)F)c2)cc1Nc1cncc(C(N)=O)c1 [ALW-II-49-7] + CC(C)C[C@H](NC(=O)[C@H](Cc1ccccc1)NC(=O)c1cnccn1)B(O)O [Bortezomib] (partner 0.002 µM)
# In short: as §1
# ALW-II-49-7 + Tozasertib = compound: Cc1ccc(C(=O)Nc2cccc(C(F)(F)F)c2)cc1Nc1cncc(C(N)=O)c1 [ALW-II-49-7] + Cc1cc(Nc2cc(N3CCN(C)CC3)nc(Sc3ccc(NC(=O)C4CC4)cc3)n2)n[nH]1 [Tozasertib] (partner 0.1 µM)
# In short: as §1
# Dasatinib + Bortezomib = compound: Cc1nc(Nc2ncc(C(=O)Nc3c(C)cccc3Cl)s2)cc(N2CCN(CCO)CC2)n1 [Dasatinib] + CC(C)C[C@H](NC(=O)[C@H](Cc1ccccc1)NC(=O)c1cnccn1)B(O)O [Bortezomib] (partner 0.002 µM)
# In short: as §1
Cell Line,relative viability (XMD13-2 + Trametinib; first compound 0.05 µM),relative viability (XMD13-2 + Trametinib; first compound 0.1581 µM),relative viability (XMD13-2 + Trametinib; first compound 0.5 µM),relative viability (XMD13-2 + Trametinib; first compound 1.581 µM),relative viability (XMD13-2 + Trametinib; first compound 5 µM),relative viability (ALW-II-49-7 + Bortezomib; first compound 0.08 µM),relative viability (ALW-II-49-7 + Bortezomib; first compound 0.253 µM),relative viability (ALW-II-49-7 + Bortezomib; first compound 0.8 µM),relative viability (ALW-II-49-7 + Bortezomib; first compound 2.53 µM),relative viability (ALW-II-49-7 + Bortezomib; first compound 8 µM),relative viability (ALW-II-49-7 + Tozasertib; first compound 0.08 µM),relative viability (ALW-II-49-7 + Tozasertib; first compound 0.253 µM),relative viability (ALW-II-49-7 + Tozasertib; first compound 0.8 µM),relative viability (ALW-II-49-7 + Tozasertib; first compound 2.53 µM),relative viability (ALW-II-49-7 + Tozasertib; first compound 8 µM),relative viability (Dasatinib + Bortezomib; first compound 0.005 µM),relative viability (Dasatinib + Bortezomib; first compound 0.01581 µM),relative viability (Dasatinib + Bortezomib; first compound 0.05 µM),relative viability (Dasatinib + Bortezomib; first compound 0.1581 µM),relative viability (Dasatinib + Bortezomib; first compound 0.5 µM)
NCI-H1755,0.821,0.714,0.722,0.754,0.697,0.963,1.04,0.963,0.923,0.849,0.654,0.558,0.463,0.483,0.466,0.842,0.759,0.645,0.538,0.297
NCI-H661,0.538,0.614,0.665,0.615,0.409,0.865,0.796,0.717,,0.716,0.388,0.369,0.341,0.362,0.337,0.62,0.415,0.557,0.319,0.24
LOU-NH91,0.802,0.726,0.793,0.729,0.85,0.425,0.529,0.549,0.316,0.489,0.622,0.468,0.633,0.631,0.575,0.477,0.477,0.479,0.485,0.487
LXF-289,0.672,0.73,0.731,0.642,0.731,0.973,0.965,1.02,1.1,1.04,0.187,0.194,0.168,0.184,0.182,1.03,1.12,0.93,0.518,0.204
HCC-44,1.2,1.04,1.17,1.05,1.05,0.84,0.89,0.885,0.846,0.889,,0.908,0.874,0.109,0.664,0.857,0.857,0.993,0.894,0.45
HARA,0.667,0.948,1.16,0.776,0.674,1.06,1.17,0.994,1.22,1.26,0.0918,0.121,0.114,0.0912,0.0839,1.19,0.881,0.897,0.501,0.184
201T,0.712,0.748,0.736,0.703,0.783,1.1,1.13,1.09,1.08,1.06,0.886,0.948,0.941,0.902,0.92,1.04,0.938,1.01,0.982,0.623
LC-2-ad,0.934,0.938,0.961,0.936,0.93,1.06,0.997,1.01,1.05,0.983,0.405,0.428,0.431,0.209,0.434,0.582,0.985,1.01,0.871,0.36
